Patent publication US20240300977A1, “INHIBITORS OF DNA-DEPENDENT PROTEIN KINASE AND COMPOSITIONS AND USES THEREOF” (Intellia Therapeutics, Inc., priority 2021, published 2024)

System: NK cells
Assay: GFP insertion at AAVS1 in NK cells, flow cytometry
Format: cell-based, human
Conditions: LNP + AAV, seven days
Method: NK cells were assessed for the impact of DNA protein kinase inhibitors (DNA-PKI) on indel and insertion rates. […] A subset of samples was also treated with AAV encoding a GFP coding sequence flanked by regions of homology to the AAVS1 edit site (SEQ ID NO: 16). NK cells were isolated from a commercially obtained leukopak using the EasySep Human NK Cell Isolation Kit ([…], Cat. No. 17955) according to the manufacturer's protocol. […] NK cells were plated at 50,000 cells per well in triplicate in OpTmizer supplemented as described above with DNA-PKI at concentrations indicated in Tables 10 and 11. […] For a subset of samples, AAV encoding GFP flanked by regions homologous to the AAVS1 edit site were added at a multiplicity of infection (MOI) of 600,000 genome copies following editing. At seven days post LNP composition treatment, cells were phenotyped by flow cytometry to measure GFP insertion rates. Briefly, NK cells were incubated with antibodies targeting CD3 (Biolegend, Cat. No. 317336) and CD56 (Biolegend, Cat. No. 318310). […] NK cells were gated on size, CD3/CD56 status, and GFP expression. High GFP-expressing cells were gated as targeted GFP […] locus and low GFP-expressing cells were gated as episomal retention.

Compound: Cc1cc2ncnn2cc1Nc1ncc2c(n1)n(C1CCC3(CC1)CC3)c(=O)n2C [Compound 4, 7-methyl-2-((7-methyl-[1,2,4]triazolo[1,5-a]pyridin-6-yl)amino)-9-(spiro[2.5]octan-6-yl)-7,9-dihydro-8H-purin-8-one]
- Percent of NK cells with high GFP expression (Mean) (DNA-PKI 0.125 uM): 88.10%
- Percent of NK cells with high GFP expression (Mean) (DNA-PKI 0.5 uM): 90.27%
